Experiment [1] deals with TNFα production, human peripheral blood mononuclear cells. Briefly: PBMC test: inhibition of LPS-stimulated TNFα production. It counts as cell-based. Here is the method:
The ability of compounds of this invention to inhibit TNFα production was assessed by using human peripheral blood mononuclear cells which synthesise and secrete TNFα when stimulated with lipopolysaccharide.
Peripheral blood mononuclear cells (PBMC) were isolated from heparinised (10 units/ml heparin) human blood by density centrifugation (Lymphoprep™; Nycomed). Mononuclear cells were resuspended in culture medium [RPMI 1640 medium (Gibco) supplemented with 50 units/ml penicillin, 50 μg/ml streptomycin, 2 mM glutamine and 1% heat-inactivated human AB serum (Sigma H-1513)]. Compounds were solubilised in DMSO at a concentration of 50 mM, diluted 1:100 in culture medium and subsequently serial dilutions were made in culture medium containing 1% DMSO. PBMCs (2.4×10^5 cells in 160 μl culture medium) were incubated with 20 μl of varying concentrations of test compound (triplicate cultures) or 20 μl culture medium containing 1% DMSO (control wells) for 30 minutes at 37° C. in a humidified (5%CO2/95% air) incubator (Falcon 3072; 96 well flat-bottom tissue culture plates). 20 μl lipopolysaccharide [LPS E.Coli 0111:B4 (Sigma L-4130), final concentration 10 μg/ml] solubilised in culture medium was added to appropriate wells. 20 μl culture medium was added to “medium alone” control wells. Six “LPS alone” and four “medium alone” controls were included on each 96 well plate. Varying concentrations of a known TNFα inhibitor were included in each test, i.e. an inhibitor of the PDE Type IV enzyme (for example see Semmler, J. Wachtel. H and Endres, S., Int. J. Immunopharmac. (1993), 15(3), 409-413) or an inhibitor of pro TNFα convertase (for example, see McGeehan, G. M. et al. Nature (1994) 370, 558-561). Plates were incubated for 7 hours at 37° C. (humidified incubator) after which 100 μl of the supernatant was removed from each well and stored at −70° C. (96 well round-bottom plates; Corning 25850). TNFα levels were determined in each sample using a human TNFα ELISA (see WO92/10190 and Current Protocols in Molecular Biology, vol 2 by Frederick M. Ausbel et al., John Wiley and Sons Inc.).
% inhibition=(LPS alone−medium alone)−(test concentration−medium alone)/(LPS alone−medium alone)×100

For a further experiment, the target named is T1, p38α (Homo sapiens, UniProt Q16539).
T1 construct: c-myc (N); 6His (N); made in house; host or cells: E. coli (PET vectors)
T1 sequence (Q16539 whole entry): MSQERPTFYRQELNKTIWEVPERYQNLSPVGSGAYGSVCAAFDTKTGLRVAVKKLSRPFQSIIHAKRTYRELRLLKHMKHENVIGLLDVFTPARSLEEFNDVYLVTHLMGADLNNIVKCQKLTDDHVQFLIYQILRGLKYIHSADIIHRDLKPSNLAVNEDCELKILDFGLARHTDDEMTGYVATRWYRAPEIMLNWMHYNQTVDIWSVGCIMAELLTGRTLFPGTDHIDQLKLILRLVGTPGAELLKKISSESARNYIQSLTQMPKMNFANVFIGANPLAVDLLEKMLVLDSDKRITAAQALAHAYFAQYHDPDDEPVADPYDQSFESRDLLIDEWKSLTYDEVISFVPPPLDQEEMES
Briefly: In vitro enzyme assay, p38α kinase. Type of experiment: biochemical. Here is the method: The ability of compounds of the invention to inhibit the enzyme p38 kinase was assessed. Activity of particular test compounds against each of the p38α and p38β isoforms of the enzyme was determined.
Human recombinant MKK6 (GenBank Accesion Number G1209672) was isolated from Image clone 45578 (Genomics, 1996, 33, 151) and utilised to produce protein in the form of a GST fusion protein in a pGEX vector using analogous procedures to those disclosed by J. Han et al., Journal of Biological Chemistry, 1996, 271, 2886-2891. p38α (GenBank Accession Number G529039) and p38β (GenBank Accession Number G1469305) were isolated by PCR amplification of human lymphoblastoid cDNA (GenBank Accession Number GM1416) and human foetal brain cDNA [synthesised from mRNA (Clontech, catalogue no. 6525-1) using a Gibco superscript cDNA synthesis kit] respectively using oligonucleotides designed for the 5′ and 3′ ends of the human p38α and p38β genes using analogous procedures to those described by J. Han et al., Biochimica et Biophysica Acta, 1995, 1265, 224-227 and Y. Jiang et al., Journal of Biological Chemistry, 1996, 271, 17920-17926.
Both p38 protein isoforms were expressed in e coli in PET vectors. Human recombinant p38α and p38β isoforms were produced as 5′ c-myc, 6His tagged proteins. Both MKK6 and the p38 proteins were purified using standard protocols: the GST MKK6 was purified using a glutathione sepharose column and the p38 proteins were purified using nickel chelate columns.
The p38 enzymes were activated prior to use by incubation with MKK6 for 3 hours at 30° C. The unactivated coli-expressed MKK6 retained sufficient activity to fully activate both isoforms of p38. The activation incubate comprised p38α (10 μl of 10 mg/ml) or p38β (10 μl of 5 mg/ml) together with MKK6 (10 μl of 1 mg/ml), ‘Kinase buffer’ [100 μl; pH 7.4 buffer comprising Tris (50 mM), EGTA (0.1 mM), sodium orthovanadate (0.1 mM) and β-mercaptoethanol (0.1%)] and MgATP (30 μl of 50 mM Mg(OCOCH3)2 and 0.5 mM ATP). This produced enough activated p38 enzyme for 3 Microtiter plates.
Test compounds were solubilised in DMSO and 10 μl of a 1:10 diluted sample in ‘Kinase Buffer’ was added to a well in a Microtiter plate. […] The precipitated protein was phosphorylated by p38 kinase and test compounds were assessed for their ability to inhibit this phosphorylation. The plates were filtered using a Canberra Packard Unifilter and washed with 2% TCA, dried overnight and counted on a Top Count scintillation counter.
Test compounds were tested initially at a single dose and active compounds were retested to allow IC50 values to be determined.

Structures are written as SMILES.

This is an account of results in patent US6593333B1, “Substituted anilino-quinazoline (or quinoline) compounds and use thereof” (Astrazeneca AB, priority 1998, dated 2003).

As for `COc1cc2c(Nc3cc(NC(=O)c4cccc(N(C)C)c4)ccc3C)ncnc2cc1OCCCN1CCOCC1` [Example 38], the IC50 was determined as 2000 nM in experiment [1] and 100 nM at p38α.

In the case of `COc1cc2ncnc(Nc3ccc(C)c(NC(=O)c4ccccc4)c3)c2cc1OC` [Example 11], the IC50 was determined as 3600 nM in experiment [1] and 1300 nM at p38α.

Regarding `COc1cc2c(Nc3cc(NC(=O)c4cccc(N(C)C)c4)ccc3C)ncnc2c(OC)c1OC` [Example 24, 4-[2-Methyl-5-(3-dimethylaminobenzamido)anilino]-6,7,8-trimethoxyquinazoline], the IC50 in experiment [1] amounted to 5200 nM; against p38α, 200 nM.

On to `CCC(=O)Nc1cc(Nc2ncnc3cc(OC)c(OC)cc23)ccc1F` [Example 14], for which the IC50 in experiment [1] was 3200 nM; against p38α, 3400 nM.

By IC50 is commonly meant the concentration that inhibits the measured activity by half. Lower therefore signals greater potency.
